Source: US12286632B2, “Rationally-designed synthetic peptide shuttle agents for delivering polypeptide cargos from an extracellular space to the cytosol and/or nucleus of a target eukaryotic cell, uses thereof, methods and kits relating to same” (Feldan Bio Inc., priority 2016, dated 2025)

Assays:
THP-1 cells = assay: HOXB4-WT transduction: target gene mRNA by real-time PCR (Fold over control) and total RNA (ng/μL) as marker for cell viability; format: cell-based, human; settings: for Total RNA in ng/μL (mean ± St. Dev): THP-1, serum
Description: Control and treated cells are transferred to separate sterile 1.5-mL tubes and centrifuged for 5 minutes at 300g. The cell pellets are resuspended in appropriate buffer to lyse the cells. RNAase-free 70% ethanol is then added followed by mixing by pipetting. The lysates are transferred to an RNeasy™ Mini spin column and centrifuged 30 seconds at 13000 RPM. After several washes with appropriate buffers and centrifugation steps, the eluates are collected in sterile 1.5-mL tubes on ice, and the RNA quantity in each tube is then quantified with a spectrophotometer. For DNase treatment, 2 μg of RNA is diluted in 15 μL of RNase-free water. 1.75 μL of 10X DNase buffer and 0.75 μL of DNase is then added, followed by incubation at 37° C. for 15 minutes. For reverse transcriptase treatment, 0.88 μL of EDTA […] is added, followed by incubation at 75° C. for 5 minutes. In a PCR tube, […] of DNase-treated RNA is mixed with 4 μL of iScript™ Reverse transcription Supermix (5X) and […] of nuclease-free water. The mix is incubated in a PCR machine with the following program: 5 min at 25° C., 30 min at 42° C. and 5 min at 85° C. Newly synthesized cDNA is transferred in sterile 1.5-mL tubes and diluted in 2 μL of nuclease-free water. 18 μL per well of a qPCR machine (CFX-96™) mix is then added in a PCR plate for analysis.
Briefly, THP-1 cells were plated at 30 000 cells/well one day before transduction. HOXB4-WT recombinant protein ([…]; Example 14.1) was co-incubated with different concentrations of His-CM18-PTD4 ([…]) and then exposed to THP-1 cells for 2.5 hours in the presence of serum. The cells were subjected to real time-PCR analysis as described in Example 14.2 to measure the mRNA levels of a target gene as a marker for HOXB4 activity, which was then normalized to the target gene mRNA levels detected in the negative control cells (no treatment), to obtain a “Fold over control” value. Total RNA levels (ng/μL) were also measured as a marker for cell viability.
Briefly, THP-1 cells were plated at 30 000 cells/well one day before the first time course experiment. HOXB4-WT recombinant protein (1.5 μM; Example 14.1) was co-incubated with His-CM18-PTD4 (0.8 μM) and then exposed to THP-1 cells for 0, 2.5, 4, 24 or 48 hours in presence of serum. The cells were subjected to real time-PCR analysis as described in Example 14.2 to measure mRNA levels of a target gene as a marker for HOXB4 activity, which was then normalized to the target gene mRNA levels detected in the negative control cells (no treatment), to obtain a “Fold over control” value. Total RNA levels (ng/μL) were also measured as a marker for cell viability.
Briefly, THP-1 cells were plated at 30 000 cells/well one day before the first time course experiment. HOXB4-WT recombinant protein (0.3 μM; Example 14.1) was co-incubated with His-CM18-PTD4 (0.8 μM) and then exposed to THP-1 cells for 0, 0.5, 1, 2, 2.5, 3 or 4 hours in presence of serum. The cells were subjected to real time-PCR analysis as described in Example 14.2 to measure mRNA levels of a target gene as a marker for HOXB4 activity, which was then normalized to target gene mRNA levels detected in the negative control cells (no treatment), to obtain a “Fold over control” value. Total RNA levels (ng/μL) were also measured as a marker for cell viability.
Briefly, THP-1 cells were plated at 30 000 cells/well one day before the first time course experiment. HOXB4-WT recombinant protein (1.5 μM; Example 14.1) co-incubated with the shuttle agents His-CM18-PTD4, TAT-KALA, EB1-PTD4, His-C(LLKK)3C-PTD4 and His-CM18-PTD4-His at 0.8 μM, and then exposed to THP-1 cells for 2.5 hours in presence of serum. The cells were subjected to real time-PCR analysis as described in Example 14.2 to measure mRNA levels of a target gene as a marker for HOXB4 activity, which was then normalized to target gene mRNA levels detected in the negative control cells (no treatment), to obtain a “Fold over control” value. […]

[1] = test system: 293T, Balb3T3, CHO, Myoblasts, Jurkat, CA46, HT2 and NIH3T3 cells; assay: GFP-NLS transduction in several adherent and suspension cells, visualization by microscopy; format: cell-based; settings: 35 μM, 10 seconds (adherent) or 5 μM, 15 seconds (suspension); GFP-NLS 5 μM
Description: GFP-NLS recombinant protein (5 μM; see Example 5.1) was co-incubated with 35 μM of His-CM18-PTD4 and exposed to adherent cells for 10 seconds using […], or was co-incubated with 5 μM of His-CM18-PTD4 and exposed to suspension cells for 15 seconds using Protocol B, as described in Example 9.1. After washing the cells, GFP fluorescence was visualized by bright field and fluorescence microscopy. Sample images captured at 10× magnifications showing GFP fluorescence are shown for 293T (FIG. 37A), Balb3T3 (FIG. 37B), CHO (FIG. 37C), Myoblasts (FIG. 370), Jurkat (FIG. 37E), CA46 (FIG. 37F), HT2 (FIG. 37G), and NIH3T3 (FIG. 37H) cells. The insets show corresponding flow cytometry results performed as described in Example 3.3, indicating the percentage of GFP-NLS-positive cells.
Nuclear localization of the GFP-NLS was further confirmed in fixed and permeabilized myoblasts using cell immuno-labelling as described in Example 3.2a. GFP-NLS was labeled using a primary mouse monoclonal anti-GFP antibody (Feldan, #A017) and a secondary goat anti-mouse Alexa™-594 antibody (Abcam #150116). Nuclei were labelled with DAPI. Sample results for primary human myoblast cells are shown in FIG. 38, in which GFP immuno-labelling is shown in FIG. 38A, and an overlay of the GFP immuno-labelling and DAPI labelling is shown in FIG. 38B.

SMILES: CC[C@H](C)[C@H](NC(=O)[C@H](CCCCN)NC(=O)[C@H](CCCCN)NC(=O)[C@H](Cc1ccccc1)NC(=O)[C@H](CC(C)C)NC(=O)[C@H](CCCCN)NC(=O)[C@H](Cc1c[nH]c2ccccc12)NC(=O)[C@H](CCCCN)NC(=O)[C@H](Cc1c[nH]cn1)NC(=O)[C@H](Cc1c[nH]cn1)NC(=O)[C@H](Cc1c[nH]cn1)NC(=O)[C@H](Cc1c[nH]cn1)NC(=O)[C@H](Cc1c[nH]cn1)NC(=O)[C@@H](N)Cc1c[nH]cn1)C(=O)NCC(=O)N[C@@H](C)C(=O)N[C@H](C(=O)N[C@@H](CC(C)C)C(=O)N[C@@H](CCCCN)C(=O)N[C@H](C(=O)N[C@@H](CC(C)C)C(=O)N[C@H](C(=O)N[C@H](C(=O)NCC(=O)N[C@@H](Cc1ccc(O)cc1)C(=O)N[C@@H](C)C(=O)N[C@@H](CCCNC(=N)N)C(=O)N[C@@H](C)C(=O)N[C@@H](C)C(=O)N[C@@H](C)C(=O)N[C@@H](CCCNC(=N)N)C(=O)N[C@@H](CCC(N)=O)C(=O)N[C@@H](C)C(=O)N[C@@H](CCCNC(=N)N)C(=O)N[C@@H](C)C(=O)O)[C@@H](C)O)[C@@H](C)O)C(C)C)C(C)C [His-CM18-PTD4]
- target gene mRNA transcription after HOXB4-WT transduction (in words) (THP-1 cells; 2.5 hours in the presence of serum): dose-dependent increase in mRNA transcription of the target gene
- Total RNA in ng/μL (mean ± St. Dev) (THP-1 cells; Table 14.1, 2.5 hours, shuttle 1 μM, HOXB4-WT 0 μM (alone)): 252 ± 10.7 ng/µL
- Total RNA in ng/μL (mean ± St. Dev) (THP-1 cells; Table 14.2, shuttle 0.8 μM, HOXB4-WT 0 μM (alone), exposure 2.5 h): 184 ± 6.0 ng/µL
- Total RNA in ng/μL (mean ± St. Dev) (THP-1 cells; Table 14.3, shuttle 0 μM, HOXB4-WT 0.3 μM (alone), exposure 2.5 h): 260 ± 7.1 ng/µL
- Total RNA in ng/μL (mean ± St. Dev) (THP-1 cells; Table 14.4, shuttle 0 μM, HOXB4-WT 1.5 μM (alone), exposure 2.5 h): 303.9 ± 7.6 ng/µL
- GFP-NLS nuclear delivery (microscopy) [1]: successfully delivered to the nucleus of all the tested cells
